According to patent publication US20250319067A1, “Improved Pharmacokinetics of Tryptamine Prodrugs” (Reunion Neuroscience, Inc., priority 2023, published 2025):

Legend:
[1] = GLP 14-day extended single SC dose toxicity study in rats; details: Sprague Dawley, rat, plasma, sc, 10 mg/kg
Description: In a GLP 14-day extended single SC dose toxicity study in rats, doses of 0 (PBS), 10, 25 and 75 mg/kg were evaluated. Animals were necropsied on Study Day 2 and Day 14 (also referred to as Recovery Day 13) post-dosing.
A non-GLP dose range study was performed in the dog in order to determine an MTD. Single SC doses of 7.5, 15 and 20 mg/kg were evaluated.

in vivo [2] = details: for half-life: male, cynomolgus monkey, plasma; for mean terminal half-life: monkey
Description: Two male cynomolgus monkeys were administered 3 treatments in a crossover study design (Calvert Laboratories, Inc, Scott Township, PA; QPS, LLC, Newark, DE, USA). In treatment 1, RE104 was administered as an IV bolus dose at 1 mg/kg. In treatment 2, RE104 was administered as an SC injection at 0.5 mg/kg, and in treatment 3, RE104 was administered PO at 5 mg/kg, with all dosing formulations prepared in phosphate buffered saline.

[3] = Plasma protein binding, animal plasma; format: in vitro ADME; details: animal plasma proteins
[4] = Plasma protein binding, human plasma; format: in vitro ADME; details: human plasma proteins, 1 to 20 PM; read-out: plasma protein binding (bound)
[5] = Metabolite profiling in monkey plasma after SC RE104; format: in vivo, cynomolgus monkey; details: pooled plasma 0 to 12 hours post dose, SC 0.5 mg/kg RE104
Excerpt: Blood samples were centrifuged to obtain plasma.

healthy females = assay: Phase 1 FIH study: modified Drug Effect Questionnaire (DEQ-High); format: in vivo, human; details: plasma concentration below 40 ng/mL
Description: (§1) The study was a double-blind, randomized, placebo-controlled Phase 1 single ascending dose study in up to 6 cohorts in healthy females. Eligibility was assessed during a screening period of up to 28 days prior to enrollment. For the treatment period, subjects were admitted to the clinical research unit (CRU) one day prior to the dosing (Day −1). On Day 1, all subjects will received the assigned SC dose of RE104 HCl or placebo in a fed state (after domiciling overnight and consuming a planned evening meal on Day −1 and morning meal on Day 1 while at the CRU). Subjects were allowed to select snacks from a planned menu from 4 hours following dosing. Subjects were discharged from the clinic on Day 2 (−24 hours post-dose) after all required study procedures were completed and if deemed medically fit. Subjects returned to the clinic on Day 10 (±2 days) for a follow up visit.
The Drug Effect Questionnaire (DEQ) Feel/High is widely used in studies of acute subjective response to a variety of substances, to assess two key aspects of subjective experience: (1) the strength of substance effects and (2) desirability of substance effects (Morean et al., 2013). The modified DEQ assesses the extent to which subjects (1) feel any substance effect(s) and (2) feel high. This version of the DEQ includes the following items: “Do you feel a drug effect right now?” (FEEL); “Are you high right now?” (HIGH). FIG. 2 sets out the modified DEQ that was used.
The modified DEQ was used as an 11-point numeric rating scale (0-10) administered by a qualified staff member. The subjects were asked to verbally respond to indicate how strongly they feel the drug effect and how high they feel on the scale of 0-10 after being administered the study drug (Kollltveit et al., 2020).

[6] = Phase 1 FIH study: plasma pharmacokinetics (LC-MS/MS); format: in vivo; details: female, plasma, human; for half-life: read-out: t1/2, mean (converted)
Description: as §1
The concentrations of RE104 and isoprocin in plasma were determined using a validated Liquid chromatography tandem mass spectrometry (LC-MS/MS) assay.

in vivo [7] = details: male, beagle, dog, plasma, po, 5 mg/kg
Description: Two consecutive doses were separated by z7 days. Plasma samples were analyzed using an LC-MS/MS method (lower limit of quantification of 1.00 ng/mL for both analytes).
Pharmacokinetic parameters were calculated using Phoenix WinNonlin, version 6.3 or 8.2 (Certara, Princeton, NJ, USA).
For dog PK assessments, approximately 0.5 mL of blood was collected via superficial vein before dose and at 5 (for IV and SC injections only), 15, and 30 minutes and 1, 2, 4, 8, 16, 24, 48, and 72 hours post dose into tubes containing K2EDTA with 10 mM Dichlorvos as the anticoagulant and stabilizer, respectively.

[8] = in PBS; cited from earlier work
humans = details: human, cited from earlier work
[9] = tested on: primary human hepatocytes; assay: Metabolite profiling in plated human hepatocytes; details: 1 μM, pooled plated human hepatocytes
Description: The formation of metabolites was monitored at 0, 4, 8, and 24 hours, respectively. […] Samples for positive and negative controls were determined at 0, 8, and 24 hours, respectively. RE104 and its metabolites were identified and profiled using ultrahigh-performance liquid chromatography (Supplemental Methods).
The quenched samples were pipetting mixed, harvested, and stored at −70° C. or lower until liquid chromatography tandem mass spectrometry analysis. […] The plated human hepatocyte incubation samples were frozen at ≤−70° C. or lower immediately and thawed to room temperature before sample processing. A 500-μL aliquot of each sample was transferred to matrix tubes (1.4 mL), followed by the addition of 500-μL mixed solvent acetonitrile:methanol:for mic acid (50:50:0.1, v/v/v). The resulting mixtures were vortex mixed for 2 minutes and centrifuged at 3000 rpm for 10 minutes. The supernatants from the triplicate incubations were pooled to generate the pooled samples (1.5 mL/each) for the LC-MS analysis.
For all metabolite identification and profiling experiments, RE104 and its metabolites were identified and profiled by UHPLC in a Shimadzu Nexeran™ UHPLC system coupled with a high-resolution mass spectrometer SCIEX 6600 Triple TOF®. Mass spectrometry analysis was carried out by using an electrospray ionization source operating in positive ion mode with full-scan TOF MS and MS/MS modes. […]

[10] = Metabolite profiling in rat plasma after SC RE104; details: 0- to 10-hour pooled plasma, SC 10, 25, or 75 mg/kg RE104
Description: Metabolite profiling and identification was performed using rat, dog, and nonhuman primate plasma samples after a single SC injection of RE104 (QPS, LLC, Newark, DE, USA).
Blood samples were centrifuged to obtain plasma. Plasma samples for rat and dog studies were pooled across time points to 1 sample per dose and sex separately; plasma samples from monkeys were pooled to generate 1 combined sample.
Metabolite profiling and identificationFor experiments performed in rats, blood samples were collected before dose and at 15 minutes, 30 minutes, and 1, 2, 4, 6, and 10 hours after dose. Blood samples from dogs were collected before dose and at 5 minutes, 30 minutes, and 1, 2, 4, 8, 12, and 24 hours after dose. Monkey blood samples were collected before dose and at 5 minutes, 15 minutes, 30 minutes, and 1, 1.5, 2, 4, 8, and 12 hours after dose. […]
The percent of RE104 and its metabolites in relation to the total area of compound-related material was obtained by integration of the extracted ion chromatogram peaks on the full-scan mass-chromatograms. The percent of peak area for each component relative to the total peak area was determined by using the following formula: Component % peak area=(peak area of component ×100%/total integrated peak area of compound-related material).

[11] = target: human recombinant 5-HT2A receptors (Homo sapiens, UniProt P28223); assay: 5-HT2A agonist radioligand binding assay ([125I]DOI)
human recombinant 5-HT2A receptors, sequence (P28223 whole entry): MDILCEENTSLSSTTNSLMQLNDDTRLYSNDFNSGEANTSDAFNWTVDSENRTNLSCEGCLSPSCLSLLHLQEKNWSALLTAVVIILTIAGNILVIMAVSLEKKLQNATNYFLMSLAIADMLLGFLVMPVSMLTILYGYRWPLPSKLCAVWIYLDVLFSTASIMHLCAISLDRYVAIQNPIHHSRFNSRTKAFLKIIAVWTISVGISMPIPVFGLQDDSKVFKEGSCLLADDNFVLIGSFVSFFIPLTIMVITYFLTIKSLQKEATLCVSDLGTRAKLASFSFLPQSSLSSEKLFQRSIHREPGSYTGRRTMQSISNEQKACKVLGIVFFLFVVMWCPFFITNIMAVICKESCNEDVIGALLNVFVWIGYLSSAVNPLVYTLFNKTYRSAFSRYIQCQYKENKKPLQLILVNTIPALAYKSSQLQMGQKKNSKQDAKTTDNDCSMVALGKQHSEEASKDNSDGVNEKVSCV
Description: (§2) Increasing concentrations of RE104 were incubated with 0.2 nM [^125I]DOI in CHO cell cultures expressing human recombinant 5-HT2B receptors.
(§3) Radioligand concentration was measured by scintillation counting; compound binding was calculated as percent inhibition of the binding of [^125I]DOI. In agonist activity assays, test concentrations of RE104 were incubated with HEK-293 cells expressing human recombinant 5-HT2A receptors; IP1 production was detected using homogeneous time-resolved fluorescence. Activation was calculated as a percentage of the response to the positive control (10 μM 5-HT).
(§4) Inhibition constants were calculated by using the Cheng-Prusoff equation Ki=IC50/(1+L/KD), where L=radioligand concentration and KD=radioligand affinity for the receptor (determined with a Scatchard plot). In the functional activity assay test concentrations of RE104 were 10 nM, 30 nM, 100 nM, 300 nM, 1 μM, 3 μM, 10 μM, and 30 μM. EC50 and IC50 values were determined by nonlinear regression analysis of the concentration-response curves generated with mean replicate values using Hill equation curve fitting.

[12] = target: human recombinant 5-HT2B receptors (Homo sapiens, UniProt P41595); assay: 5-HT2B agonist radioligand binding assay ([125I]DOI)
human recombinant 5-HT2B receptors, sequence (P41595 whole entry): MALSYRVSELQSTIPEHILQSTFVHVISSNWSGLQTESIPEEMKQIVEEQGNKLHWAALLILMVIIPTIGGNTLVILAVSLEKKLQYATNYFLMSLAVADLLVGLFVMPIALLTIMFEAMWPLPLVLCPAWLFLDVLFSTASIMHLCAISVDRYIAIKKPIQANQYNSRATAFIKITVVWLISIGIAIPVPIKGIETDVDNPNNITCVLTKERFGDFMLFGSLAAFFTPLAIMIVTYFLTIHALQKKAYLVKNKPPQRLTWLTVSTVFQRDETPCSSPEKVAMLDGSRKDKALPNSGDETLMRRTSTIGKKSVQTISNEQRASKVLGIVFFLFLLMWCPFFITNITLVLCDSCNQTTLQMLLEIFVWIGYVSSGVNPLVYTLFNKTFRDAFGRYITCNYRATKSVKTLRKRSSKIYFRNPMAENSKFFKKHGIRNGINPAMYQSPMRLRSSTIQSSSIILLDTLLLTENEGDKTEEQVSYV
Description: as §2, §3, §4

[13] = GLP 14-day extended single SC dose toxicity study in dogs; details: beagle, dog, plasma, sc, 8 mg/kg
[14] = Rat PK after single IV or SC RE104 HCl 2 mg/kg (Example 1)

Which AUC(0-t) [1] does the source give for CC(C)N(CCc1c[nH]c2cccc(O)c12)C(C)C [4-OH-DiPT, 3-(2-diisopropylamino-ethyl)-1H-indol-4-ol] here?
Its AUC(0-t) is 1.23 µg·h/mL.

And the Cmax [1]?
Its Cmax is 0.542 µg/mL.

And the half-life (in vivo [2]; iv, 1 mg/kg)?
Its half-life is 0.631 h.

And the half-life (in vivo [2]; sc, 0.5 mg/kg)?
The half-life was 0.95 h.

What about the mean terminal half-life (in vivo [2]; RE104 IV dosing) of the same compound?
Its mean terminal half-life is 0.63 h.

What about the mean terminal half-life (in vivo [2]; RE104 SC dosing) of the same compound?
The mean terminal half-life was 0.95 h.

And the fraction unbound [3]?
Its fraction unbound is 0.4 to 0.7.

And the fraction unbound [4]?
Its fraction unbound is 0.07 to 0.2.

And the “share of the total peak area” value [5]?
Its value is 4.42%.

And the “mean DEQ-High score” value (healthy females)?
The value was no more than 2.

And the Cmax ([6]; RE104 dose 5.5 mg SC (n = 6))?
Its Cmax is 0.018 µg/mL.

What about the Tmax ([6]; RE104 dose 5.5 mg SC (n = 6)) of the same compound?
Its Tmax is 1.12 h.

What about the half-life ([6]; RE104 dose 5.5 mg SC (n = 6)) of the same compound?
Its half-life is 3.42 h.

What about the Cmax ([6]; RE104 dose 11 mg SC (n = 6)) of the same compound?
The Cmax was 0.06 µg/mL.

And the Tmax ([6]; RE104 dose 11 mg SC (n = 6))?
The Tmax was 1.21 h.

What about the half-life ([6]; RE104 dose 11 mg SC (n = 6)) of the same compound?
Its half-life is 3.55 h.

What about the Cmax ([6]; RE104 dose 22 mg SC (n = 6)) of the same compound?
Its Cmax is 0.077 µg/mL.

What about the Tmax ([6]; RE104 dose 22 mg SC (n = 6)) of the same compound?
Its Tmax is 1.42 h.

What about the half-life ([6]; RE104 dose 22 mg SC (n = 6)) of the same compound?
The half-life was 3.27 h.

What about the Cmax ([6]; RE104 dose 33 mg SC (n = 9)) of the same compound?
Its Cmax is 0.137 µg/mL.

And the Tmax ([6]; RE104 dose 33 mg SC (n = 9))?
Its Tmax is 1.07 h.

What about the half-life ([6]; RE104 dose 33 mg SC (n = 9)) of the same compound?
Its half-life is 2.79 h.

And the Cmax ([6]; RE104 dose 38 mg SC (n = 6))?
The Cmax was 0.124 µg/mL.

And the Tmax ([6]; RE104 dose 38 mg SC (n = 6))?
The Tmax was 1.08 h.

What about the half-life ([6]; RE104 dose 38 mg SC (n = 6)) of the same compound?
Its half-life is 2.79 h.

What about the Cmax ([6]; RE104 dose 44 mg SC (n = 3)) of the same compound?
Its Cmax is 0.275 µg/mL.

And the Tmax ([6]; RE104 dose 44 mg SC (n = 3))?
Its Tmax is 1.25 h.

What about the half-life ([6]; RE104 dose 44 mg SC (n = 3)) of the same compound?
The half-life was 3.76 h.

What about the AUC(0-t) (in vivo [7]) of the same compound?
The AUC(0-t) was 0.103 µg·h/mL.

What about the Cmax (in vivo [7]) of the same compound?
The Cmax was 0.0214 µg/mL.

And the Tmax (in vivo [7])?
The Tmax was 4 h.

And the solubility [8]?
Its solubility is less than 2 mg/mL.

What about the “onset of effect (mild physical awareness)” value (humans; 10 mg orally (Shulgin)) of the same compound?
Its value is no more than 1 h.

And the recovery (humans; 20 mg oral dose (Shulgin))?
The recovery was no more than 3 h.

And the onset of effect (humans; 20 mg orally (Shulgin))?
The onset of effect was no more than 15 min.

What about the metabolites formed [9] of the same compound?
Its metabolites formed is “primarily producing O-glucuronide and negligible amounts of other metabolites”.

And the “share of total metabolites in plasma” value [10]?
The value was greater than 67%.

And the IC50 ([11]; read-out: IC50 at 5-HT2A, agonist radioligand assay)?
The IC50 was 0.15 µM.

And the Ki ([11]; read-out: binding Ki at the 5-HT2A receptor, radioligand inhibition binding, HEK-293 cells)?
The Ki was 0.12 µM.

And the IC50 [12]?
The IC50 was 0.042 µM.

What about the AUC(0-t) [13] of the same compound?
The AUC(0-t) was 1.01 µg·h/mL.

And the Cmax [13]?
The Cmax was 0.36 µg/mL.

And the “elimination half-life (t1/2) in plasma” value ([14]; RE104 HCl 2 mg/kg SC)?
Its value is 0.678 h.

What about the half-life ([14]; plasma, iv, 2 mg/kg) of the same compound?
The half-life was 0.426 h.
